For the test, the system named is 996289-038-R-J1-PDC spheroid viability. As to the kind of experiment: Anticancer human tumor 996289-038-R-J1-PDC patient-derived colon adenocarcinoma cell line growth inhibition [PI3K]. The note with it: spheroids with HUVEC and MSC; for viability, T/C: stronger effect = lower value. The procedure, abridged: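 Tumor cells were combined with HUVEC and MSCs into spheroids, then dosed with PI3K-inhibitor combinations over half-log ranges capped near clinical Cmax or 10 microM.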

Here are results for two compounds from PubChem BioAssay AID1963965 (Molecular Pharmacology Branch, DTP, NCI, 2024).

Several values for one entry are separate records, joined by “and”; a condition that tells them apart may be missing. Equal entries are not always repeated. Some results are limits rather than exact numbers.
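Note: spheroids exposed to compounds for seven days before viability read.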
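Throughout, for viability, T/C: luminescence used as a proxy for viable cell amount; percent viability relative to DMSO vehicle control as 100%.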

A word on the IC50: it is the concentration that gives 50% inhibition. By viability, T/C is commonly meant the result in the treated group divided by that in the control group, in per cent. For the compound `Cn1cnc2c(F)c(Nc3ccc(Br)cc3Cl)c(C(=O)NOCCO)cc21` + COc1c(OCCCN2CCOCC2)ccc2c3n(c(=NC(=O)c4cnc(N)nc4)nc12)CCN3, the IC50 (curve of first compound, second compound 0.00316 µM) came to 0.147 µM; the IC50 (curve of first compound, second compound 0.01 µM) amounted to 0.074 µM; the half-inhibitory concentration (IC50) (curve of first compound, second compound 0.0316 µM) is 0.0496 µM; the IC50 (curve of first compound, second compound 0.1 µM) is 0.0127 µM; the IC50 (curve of first compound, second compound 0.316 µM) is less than 0.00949 µM; the IC50 (curve of first compound, second compound 1 µM) is less than 0.00949 µM. Also, the viability, T/C (second compound 0.00316 µM, first compound 0.00949 µM) is 85.8%; the viability, T/C (second compound 0.00316 µM, first compound 0.03 µM) was 64.4%; the viability, T/C (second compound 0.00316 µM, first compound 0.0949 µM) is 62.2%; the viability, T/C (second compound 0.00316 µM, first compound 0.3 µM) was 38.7%; the viability, T/C (second compound 0.00316 µM, first compound 0.949 µM) was 28.2%; the viability, T/C (second compound 0.00316 µM, first compound 3 µM) was 20.1%. For the same compound, the viability, T/C by setting is: (second compound 0.01 µM, first compound 0.00949 µM) 79.3%; (second compound 0.01 µM, first compound 0.03 µM) 65.1%; (second compound 0.01 µM, first compound 0.0949 µM) 45.5%; (second compound 0.01 µM, first compound 0.3 µM) 29.7%; (second compound 0.01 µM, first compound 0.949 µM) 28.5%; (second compound 0.01 µM, first compound 3 µM) 16.8%. Further, the viability, T/C runs as follows: (second compound 0.0316 µM, first compound 0.00949 µM) 71.3%; (second compound 0.0316 µM, first compound 0.03 µM) 59.1%; (second compound 0.0316 µM, first compound 0.0949 µM) 38.2%; (second compound 0.0316 µM, first compound 0.3 µM) 28.8%; (second compound 0.0316 µM, first compound 0.949 µM) 19.2%; (second compound 0.0316 µM, first compound 3 µM) 12.5%. In addition, the viability, T/C was 54.1% (second compound 0.1 µM, first compound 0.00949 µM); 39.2% (second compound 0.1 µM, first compound 0.03 µM); 27.6% (second compound 0.1 µM, first compound 0.0949 µM); 18.6% (second compound 0.1 µM, first compound 0.3 µM); 12.5% (second compound 0.1 µM, first compound 0.949 µM); 5.57% (second compound 0.1 µM, first compound 3 µM). In addition, the viability, T/C is 34.1% (second compound 0.316 µM, first compound 0.00949 µM); 24.5% (second compound 0.316 µM, first compound 0.03 µM); 15.1% (second compound 0.316 µM, first compound 0.0949 µM); 10.6% (second compound 0.316 µM, first compound 0.3 µM); 6.3% (second compound 0.316 µM, first compound 0.949 µM); 4.03% (second compound 0.316 µM, first compound 3 µM). Moreover, the viability, T/C runs as follows: (second compound 1 µM, first compound 0.00949 µM) 15.6%; (second compound 1 µM, first compound 0.03 µM) 14.3%; (second compound 1 µM, first compound 0.0949 µM) 9.32%; (second compound 1 µM, first compound 0.3 µM) 5.03%; (second compound 1 µM, first compound 0.949 µM) 4.84%; (second compound 1 µM, first compound 3 µM) 2.93%.

Take `CC1(C)CCC(CN2CCN(c3ccc(C(=O)NS(=O)(=O)c4ccc(NCC5CCOCC5)c([N+](=O)[O-])c4)c(Oc4cnc5[nH]ccc5c4)c3)CC2)=C(c2ccc(Cl)cc2)C1`: the viability, T/C is 103% [middle of 4 runs] (compound 0.1 µM); 101% [middle of 4 runs] (compound 0.316 µM); 111% [middle of 4 runs] (compound 1 µM); 112% [middle of 4 runs] (compound 3.16 µM); 59.5% [middle of 4 runs] (compound 10 µM). Also, the IC50 (curve of compound) is > 10 µM and 8.8 µM and 8.7 µM.
